# Measured values: patent US10758534B2 (Vertex Pharmaceuticals Incorporated, priority 2014, dated 2020)
# Where two headings read alike, the source gives them in different places.
# Biological target: T1, F508del (Homo sapiens, UniProt P13569, DEL508-508)
# T1 construct: expressed in transfected cells
# Assay: Protocol 2: FRET membrane potential optical assay (VIPR), identification of correction compounds
# Assay type: cell-based
# Summary of the method: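 NIH3T3 mouse fibroblasts stably expressing F508del-CFTR incubated with compound 16 h at 37 °C in serum-free medium, then loaded with CC2-DMPE/DiSBAC2(3) FRET dyes. Channel activated with 10 μM forskolin plus 20 μM genistein in Cl⁻-free (gluconate) bath; depolarisation from Cl⁻ efflux read on VIPR II.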
# [1] = F508del CFTR modulator activity, compounds of Table 1, read-out: EC30
# [2] = Table 3, compounds of Table 1 as modulators of CFTR activity, protocol not stated
# T1 sequence (P13569 with tags, fused parts or gaps DEL508-508): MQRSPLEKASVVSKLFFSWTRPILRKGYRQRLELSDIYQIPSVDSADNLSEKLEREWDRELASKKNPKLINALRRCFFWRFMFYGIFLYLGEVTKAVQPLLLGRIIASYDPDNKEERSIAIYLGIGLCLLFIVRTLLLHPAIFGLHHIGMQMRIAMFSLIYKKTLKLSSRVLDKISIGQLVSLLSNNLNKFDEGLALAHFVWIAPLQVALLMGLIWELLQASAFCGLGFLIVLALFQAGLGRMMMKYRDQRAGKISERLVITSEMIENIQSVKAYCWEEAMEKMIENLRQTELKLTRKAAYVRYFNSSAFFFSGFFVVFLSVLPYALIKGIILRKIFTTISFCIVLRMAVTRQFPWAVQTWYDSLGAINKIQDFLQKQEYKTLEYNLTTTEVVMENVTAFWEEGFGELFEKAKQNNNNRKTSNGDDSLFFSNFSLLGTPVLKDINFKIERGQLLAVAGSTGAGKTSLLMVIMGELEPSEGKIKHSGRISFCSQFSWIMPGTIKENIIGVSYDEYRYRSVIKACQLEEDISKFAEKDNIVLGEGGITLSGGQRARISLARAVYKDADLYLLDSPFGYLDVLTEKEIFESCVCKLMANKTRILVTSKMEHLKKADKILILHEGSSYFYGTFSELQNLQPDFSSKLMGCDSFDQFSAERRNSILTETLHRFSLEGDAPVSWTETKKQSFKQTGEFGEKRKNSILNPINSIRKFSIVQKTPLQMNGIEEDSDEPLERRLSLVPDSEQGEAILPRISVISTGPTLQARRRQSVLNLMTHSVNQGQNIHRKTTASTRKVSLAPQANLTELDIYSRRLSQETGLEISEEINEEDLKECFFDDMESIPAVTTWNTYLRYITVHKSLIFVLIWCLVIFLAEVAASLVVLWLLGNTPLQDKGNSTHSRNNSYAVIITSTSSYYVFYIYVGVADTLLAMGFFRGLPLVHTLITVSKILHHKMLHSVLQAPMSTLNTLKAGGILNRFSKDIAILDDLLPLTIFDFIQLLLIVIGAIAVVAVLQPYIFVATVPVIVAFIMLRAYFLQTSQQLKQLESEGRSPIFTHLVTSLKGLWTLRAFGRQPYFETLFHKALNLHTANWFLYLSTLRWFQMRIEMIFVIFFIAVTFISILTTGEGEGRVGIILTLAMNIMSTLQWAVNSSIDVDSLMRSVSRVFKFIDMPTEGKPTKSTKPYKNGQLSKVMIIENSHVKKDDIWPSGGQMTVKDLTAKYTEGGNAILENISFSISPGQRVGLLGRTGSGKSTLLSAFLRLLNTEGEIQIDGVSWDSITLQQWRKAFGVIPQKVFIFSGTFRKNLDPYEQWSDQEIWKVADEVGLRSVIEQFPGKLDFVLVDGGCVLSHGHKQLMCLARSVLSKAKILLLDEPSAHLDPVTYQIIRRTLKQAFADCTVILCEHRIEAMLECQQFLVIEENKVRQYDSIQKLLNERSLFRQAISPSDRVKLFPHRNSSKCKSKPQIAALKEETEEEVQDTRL
Structure (SMILES),EC30 [1] [nM],EC30 [2],further results
"Cc1cccc(C)c1Cn1nc(-c2cccc(OC(C)(C)C)c2)cc1C(=O)NS(=O)(=O)c1ccccc1 [Compound 744, N-(benzenesulfonyl)-5-(3-tert-butoxyphenyl)-2-[(2,6-dimethylphenyl)methyl]pyrazole-3-carboxamide]",,+++ (“+++” means <3 uM),
"CC(C)Oc1cncc(-c2ccc(C(=O)NS(=O)(=O)c3cccc(N)n3)c(N3[C@H](C)CC[C@@H]3C)n2)c1 [Compound 400, N-[(6-amino-2-pyridyl)sulfonyl]-2-[(2S,5R)-2,5-dimethylpyrrolidin-1-yl]-6-(5-isopropoxy-3-pyridyl)pyridine-3-carboxamide]",,++ (“++” means between 3 uM and 10 uM),
"Cc1cc(C)c(Cn2c(C(=O)NS(=O)(=O)c3ccccc3)cc3cc(Cl)ccc32)c(C)c1 [Compound 137, N-(benzenesulfonyl)-5-chloro-1-[(2,4,6-trimethylphenyl)methyl]indole-2-carboxamide]",,+++ (“+++” means <3 uM),
"COc1cccnc1S(=O)(=O)NC(=O)c1ccc(C(C)(C)C)nc1Oc1c(C)cc(C)cc1C [Compound 92, 6-tert-butyl-N-[(3-methoxy-2-pyridyl)sulfonyl]-2-(2,4,6-trimethylphenoxy)pyridine-3-carboxamide]",,+++ (“+++” means <3 uM),
"Cc1cccc(C)c1Cn1nc(-c2cccc(Cl)c2)cc1C(=O)NS(=O)(=O)c1ccccc1 [Compound 83, N-(benzenesulfonyl)-5-(3-chlorophenyl)-2-[(2,6-dimethylphenyl)methyl]pyrazole-3-carboxamide]",,+++ (“+++” means <3 uM),
"CC(C)COc1cc(F)cc(-c2ccc(C(=O)NS(=O)(=O)c3cccc(N)n3)c(N3CC4CC(C3)C4C)n2)c1 (stereo not drawn) [Compound 2224, N-[(6-amino-2-pyridyl)sulfonyl]-6-(3-fluoro-5-isobutoxy-phenyl)-2-(6-methyl-3-azabicyclo[3.1.1]heptan-3-yl)pyridine-3-carboxamide]",< 3000,,
"CC(C)COc1cc(F)cc(-c2ccc(C(=O)NS(=O)(=O)c3cccc(N)n3)c(N3CCC(C)C(C)C3)n2)c1 (single isomer, unassigned) [Compound 2178, N-[(6-amino-2-pyridyl)sulfonyl]-2-(3,4-dimethyl-1-piperidyl)-6-(3-fluoro-5-isobutoxy-phenyl)pyridine-3-carboxamide]",,,"EC30 (F508del CFTR modulator activity, compounds of Table 1): +++ (“+++” means <3 uM)"
"COc1ccc(S(=O)(=O)NC(=O)c2ccc(C(C)(C)C)nc2-c2ccc(C)cc2)cn1 [Compound 512, 6-tert-butyl-N-[(6-methoxy-3-pyridyl)sulfonyl]-2-(p-tolyl)pyridine-3-carboxamide]",,++ (“++” means between 3 uM and 10 uM),
"COc1ccc2c(c1)cc(C(=O)NS(=O)(=O)c1ccccc1)n2Cc1c(C)cc(C)cc1C [Compound 241, N-(benzenesulfonyl)-5-methoxy-1-[(2,4,6-trimethylphenyl)methyl]indole-2-carboxamide]",,+++ (“+++” means <3 uM),
"Cc1cc(C)c(Oc2nc(C(C)(C)C)ccc2C(=O)NS(=N)(=O)c2cccc(N)c2)c(C)c1 (single isomer, unassigned) [Compound 19, N-[(3-aminophenyl)sulfonimidoyl]-6-tert-butyl-2-(2,4,6-trimethylphenoxy)pyridine-3-carboxamide]",,+++ (“+++” means <3 uM),
"Cc1cc(C)c(Oc2nc(-c3ccccc3)ccc2C(=O)NS(=O)(=O)c2cccc(NCCO)n2)c(C)c1 [Compound 595, N-[[6-(2-hydroxyethylamino)-2-pyridyl]sulfonyl]-6-phenyl-2-(2,4,6-trimethylphenoxy)pyridine-3-carboxamide]",,+++ (“+++” means <3 uM),
"Cc1ccc(-c2nc(C(C)(C)C)ccc2C(=O)NS(=O)(=O)c2ccccn2)cc1 [Compound 407, 6-tert-butyl-2-(p-tolyl)-N-(2-pyridylsulfonyl)pyridine-3-carboxamide]",,++ (“++” means between 3 uM and 10 uM),
"Cc1cc(C)c(CN2c3ccccc3CCCC2C(=O)NS(=O)(=O)c2ccccc2)c(C)c1 (stereo not drawn) [Compound 604, N-(benzenesulfonyl)-1-[(2,4,6-trimethylphenyl)methyl]-2,3,4,5-tetrahydro-1-benzazepine-2-carboxamide]",,+++ (“+++” means <3 uM),
"Cc1cc(C)c(CCn2nc(C(C)(C)C)cc2C(=O)NS(=O)(=O)c2cccc(N)c2)c(C)c1 [Compound 7, N-(3-aminophenyl)sulfonyl-5-tert-butyl-2-[2-(2,4,6-trimethylphenyl)ethyl]pyrazole-3-carboxamide]",,+++ (“+++” means <3 uM),

# Further lines, with some results ahead:
EC30 [1] [nM],EC30 [2],Structure (SMILES),further results
< 3000,,"C[C@@H]1CN(c2nc(-n3cc(OCC(C)(C)C)cn3)ccc2C(=O)NS(=O)(=O)c2cccc(N)n2)C(C)(C)C1 [Compound 2603, N-[(6-amino-2-pyridyl)sulfonyl]-6-[4-(2,2-dimethylpropoxy)pyrazol-1-yl]-2-[(4S)-2,2,4-trimethylpyrrolidin-1-yl]pyridine-3-carboxamide]",
< 3000,,"Cc1cc(F)cc(-c2ccc(C(=O)NS(=O)(=O)c3cccnc3N)c(N3C[C@@H](C)CC3(C)C)n2)c1 [Compound 2505, N-[(2-amino-3-pyridyl)sulfonyl]-6-(3-fluoro-5-methyl-phenyl)-2-[(4S)-2,2,4-trimethylpyrrolidin-1-yl]pyridine-3-carboxamide]",
< 3000,,"CCOc1cc(F)cc(-c2ccc(C(=O)NS(=O)(=O)c3cccnc3N)c(N3C[C@@H](C)CC3(C)C)n2)c1 [Compound 2018, N-[(2-amino-3-pyridyl)sulfonyl]-6-(3-ethoxy-5-fluoro-phenyl)-2-[(4S)-2,2,4-trimethylpyrrolidin-1-yl]pyridine-3-carboxamide]",
< 3000,,CCOCCOCCOc1ccc(C(=O)NS(=O)(=O)c2cccnc2N)c(N2C[C@@H](C)CC2(C)C)n1 [Compound 2700],
< 3000,,"C[C@@H]1CN(c2nc(C(C)(C)C)c(C(O)C(O)C3CCCC3)cc2C(=O)NS(=O)(=O)c2cccc(N)n2)C(C)(C)C1 (single isomer, unassigned) [Compound 2661]",
< 3000,,CC1CN(c2ncccc2C(=O)NS(=O)(=O)c2cccc(OCCc3ccccc3)n2)C(C)(C)C1 (stereo not drawn) [Compound 2721],
< 3000,,"Cc1cccc(-c2ccc(C(=O)NS(=O)(=O)c3ccc[nH]c3=O)c(N3C[C@@H](C)CC3(C)C)n2)c1 [Compound 2424, 6-(m-tolyl)-N-[(2-oxo-1H-pyridin-3-yl)sulfonyl]-2-[(4S)-2,2,4-trimethylpyrrolidin-1-yl]pyridine-3-carboxamide]",
3000 to 10000,,"Cc1ccnc(Nc2cccc(S(=O)(=O)NC(=O)c3cccnc3N3CC(C)CC3(C)C)n2)c1 (stereo not drawn) [Compound 2082, N—[[6-[(4-methyl-2-pyridyl)amino]-2-pyridyl]sulfonyl]-2-(2,2,4-trimethylpyrrolidin-1-yl)pyridine-3-carboxamide]",
,+++ (“+++” means <3 uM),"Cc1ccc(Oc2nc3c(cc2C(=O)NS(=O)(=O)c2ccc[nH]c2=O)CCCC3(C)C)c(C)c1 [Compound 634, 2-(2,4-dimethylphenoxy)-8,8-dimethyl-N-[(2-oxo-1H-pyridin-3-yl)sulfonyl]-6,7-dihydro-5H-quinoline-3-carboxamide]",
3000 to 10000,,"CC(Oc1nc(N2C[C@@H](C)CC2(C)C)c(C(=O)NS(=O)(=O)c2cccc(N)n2)cc1F)c1ccncc1 (stereo partly drawn) [Compound 2212, N-[(6-amino-2-pyridyl)sulfonyl]-5-fluoro-6-[1-(4-pyridyl)ethoxy]-2-[(4S)-2,2,4-trimethylpyrrolidin-1-yl]pyridine-3-carboxamide]",
